Test system: P12-Ichikawa
Assay: cell viability relative to DMSO control; higher = less cytotoxic
Conditions: 48 h
In short: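 Viability is a per-plate percentage relative to DMSO wells, with cell-free wells as background. CellTiter-Glo One luminescence was read after 48 h at 37°C on 1536-well plates (5 μl) of NOMO1 or SEM (500 cells/well) or P12-Ichikawa (1000 cells/well) leukemia cells. The cells had been adapted for at least four passages in each medium and pin-dosed with library compounds in DMSO from 47 μM to 0.79 nM in 11 threefold steps.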

[1] = HPLM + 10% dialyzed FBS, 0.000781 µM
[2] = HPLM + 10% dialyzed FBS, 0.00234 µM
[3] = HPLM + 10% dialyzed FBS, 0.00702 µM
[4] = HPLM + 10% dialyzed FBS, 0.0211 µM
[5] = HPLM + 10% dialyzed FBS, 0.0632 µM
[6] = HPLM + 10% dialyzed FBS, 0.19 µM
[7] = HPLM + 10% dialyzed FBS, 0.569 µM
[8] = HPLM + 10% dialyzed FBS, 1.71 µM
[9] = HPLM + 10% dialyzed FBS, 5.12 µM
[10] = HPLM + 10% dialyzed FBS, 15.4 µM
[11] = HPLM + 10% dialyzed FBS, 46.1 µM
[12] = RPMI 5 mM glucose + 10% FBS, 0.000781 µM
[13] = RPMI 5 mM glucose + 10% FBS, 0.00234 µM
[14] = RPMI 5 mM glucose + 10% FBS, 0.00702 µM
[15] = RPMI 5 mM glucose + 10% FBS, 0.0211 µM
[16] = RPMI 5 mM glucose + 10% FBS, 0.0632 µM
[17] = RPMI 5 mM glucose + 10% FBS, 0.19 µM
[18] = RPMI 5 mM glucose + 10% FBS, 0.569 µM
[19] = RPMI 5 mM glucose + 10% FBS, 1.71 µM
[20] = RPMI 5 mM glucose + 10% FBS, 5.12 µM
[21] = RPMI 5 mM glucose + 10% FBS, 15.4 µM
[22] = RPMI 5 mM glucose + 10% FBS, 46.1 µM
[23] = RPMI 5 mM glucose + 10% dialyzed FBS, 0.000781 µM
[24] = RPMI 5 mM glucose + 10% dialyzed FBS, 0.00234 µM
[25] = RPMI 5 mM glucose + 10% dialyzed FBS, 0.00702 µM
[26] = RPMI 5 mM glucose + 10% dialyzed FBS, 0.0211 µM
[27] = RPMI 5 mM glucose + 10% dialyzed FBS, 0.0632 µM
[28] = RPMI 5 mM glucose + 10% dialyzed FBS, 0.19 µM
[29] = RPMI 5 mM glucose + 10% dialyzed FBS, 0.569 µM
[30] = RPMI 5 mM glucose + 10% dialyzed FBS, 1.71 µM
[31] = RPMI 5 mM glucose + 10% dialyzed FBS, 5.12 µM
[32] = RPMI 5 mM glucose + 10% dialyzed FBS, 15.4 µM
[33] = RPMI 5 mM glucose + 10% dialyzed FBS, 46.1 µM

Row | SMILES | cell viability [1] [%] | cell viability [2] [%] | cell viability [3] [%] | cell viability [4] [%] | cell viability [5] [%] | cell viability [6] [%] | cell viability [7] [%] | cell viability [8] [%] | cell viability [9] [%] | cell viability [10] [%] | cell viability [11] [%] | cell viability [12] [%] | cell viability [13] [%] | cell viability [14] [%] | cell viability [15] [%] | cell viability [16] [%] | cell viability [17] [%] | cell viability [18] [%] | cell viability [19] [%] | cell viability [20] [%] | cell viability [21] [%] | cell viability [22] [%] | cell viability [23] [%] | cell viability [24] [%] | cell viability [25] [%] | cell viability [26] [%] | cell viability [27] [%] | cell viability [28] [%] | cell viability [29] [%] | cell viability [30] [%] | cell viability [31] [%] | cell viability [32] [%] | cell viability [33] [%]
1 | COc1ccc(C(=O)c2c(C)n(CCN3CCOCC3)c3cc(I)ccc23)cc1 | 106 | 113 | 113 | 124 | 124 | 121 | 119 | 120 | 39.7 | 13.7 | 9.27 | 115 | 121 | 128 | 122 | 129 | 124 | 133 | 130 | 41.6 | 14.3 | 12.3 | 102 | 110 | 130 | 118 | 129 | 134 | 131 | 126 | 94.2 | 32.8 | 14.9
2 | CCOC(=O)\C1=C\[C@]2(CC)CCCN3CCC4=C([C@H]23)[N]1C5=C4C=CC=C5 | 98.7 | 106 | 107 | 104 | 111 | 105 | 110 | 102 | 115 | 108 | 101 | 99.6 | 118 | 109 | 110 | 123 | 111 | 109 | 116 | 111 | 114 | 79.6 | 89.5 | 106 | 109 | 104 | 107 | 108 | 113 | 105 | 105 | 109 | 65.7
3 | O=P(O)(O)C(O)(Cn1ccnc1)P(=O)(O)O | 97.2 | 111 | 64 | 114 | 111 | 122 | 121 | 119 | 125 | 112 | 117 | 109 | 122 | 70.9 | 126 | 131 | 134 | 136 | 137 | 137 | 136 | 125 | 101 | 108 | 67.8 | 111 | 114 | 120 | 116 | 114 | 112 | 122 | 118
4 | CNCC[C@H](Oc1cccc2ccccc12)c1cccs1 | 109 | 116 | 111 | 113 | 109 | 96.2 | 112 | 108 | 105 | 95.8 | 25.1 | 126 | 119 | 124 | 120 | 121 | 119 | 112 | 118 | 119 | 111 | 81 | 107 | 115 | 112 | 119 | 105 | 116 | 111 | 105 | 105 | 98.6 | 58
5 | Cc1ccccc1C(=O)Nc1ccc(C(=O)N2CCCC(O)c3cc(Cl)ccc32)c(C)c1 (stereo not drawn) | 116 | 117 | 120 | 122 | 127 | 135 | 131 | 136 | 129 | 127 | 124 |  |  |  |  |  |  |  |  |  |  |  |  |  |  |  |  |  |  |  |  |  | 
6 | NC[C@H]1O[C@H](O[C@@H]2[C@H](O)[C@@H](O[C@H]3O[C@H](CO)[C@@H](O)[C@H](N)[C@H]3O)[C@H](N)C[C@@H]2N)[C@H](O)[C@@H](O)[C@@H]1O | 126 | 124 | 124 | 107 | 120 | 121 | 117 | 121 | 112 | 104 | 107 |  |  |  |  |  |  |  |  |  |  |  |  |  |  |  |  |  |  |  |  |  | 
7 | Nc1c2c(nc3ccccc13)CCCC2 | 119 | 119 | 112 | 111 | 118 | 120 | 107 | 68.4 | 109 | 110 | 99 | 118 | 124 | 128 | 117 | 120 | 115 | 124 | 64.9 | 109 | 113 | 89.2 | 106 | 117 | 119 | 118 | 86.6 | 109 | 117 | 84.3 | 102 | 102 | 79.1
8 | CC(C)(O)CC(=O)NCCn1ccc2ncnc(Nc3ccc(Oc4cccc(C(F)(F)F)c4)c(Cl)c3)c21 | 120 | 115 | 116 | 112 | 111 | 109 | 108 | 102 | 87.2 | 69.5 | 60.7 | 110 | 107 | 121 | 114 | 121 | 105 | 107 | 111 | 93.3 | 75.6 | 52 | 104 | 113 | 117 | 109 | 115 | 113 | 110 | 106 | 95.8 | 69.1 | 47.4
9 | OCC(O)C(O)C(O)CO (stereo not drawn) | 95.6 | 102 | 97.8 | 99.8 | 98.4 | 94.3 | 103 | 92.3 | 88.1 | 88.7 | 87.7 | 83.8 | 96 | 95.3 | 95.4 | 91.1 | 92.3 | 99 | 87.1 | 86.3 | 77.8 | 89.1 | 87.2 | 89.9 | 95.3 | 89.8 | 97.2 | 89.9 | 93.7 | 85.4 | 88.3 | 79.2 | 91.8

From the supplement of paper PMC11451515
